Test results: patent US8742110B2, “Spiroxazolidinone compounds” (Merck Sharp & Dohme Corp., priority 2010, dated 2014)
pIC50: −log10 of the molar value. Counter-ions that a name gives are not always drawn.

Target: SSTR5 (Homo sapiens (Human), UniProt P35346)
Experiment: SSTR5 binding assay
Settings: CHO-K1 membranes expressing cloned human SSTR5
Protocol: The receptor-ligand binding assays of all 5 subtype of SSTRs were performed with membranes isolated from Chinese hamster ovary (CHO)-K1 cells stably expressing the cloned human somatostatin receptors in 96-well format as previous reported.
The stable cell lines for SSTR1-SSTR5 were developed by stably transfecting with DNA for all five SSTRs using Lipofectamine. […] The assay buffer consisted of 50 mM TrisHCl (pH 7.8) with 1 mM EGTA, […] MgCl2, leupeptin (10 μg/mL), pepstatin (10 μg/mL), bacitracin (200 μg/mL), and aprotinin (0.5 μg/mL). CHO-K1 cell membranes, radiolabeled somatostatin, and unlabeled test compounds were resuspended or diluted in this assay buffer. Unlabeled test compounds were examined over a range of concentrations from 0.01 nM to 10,000 nM.
Compounds exemplified were tested in the SSTR5 binding assay.

Sequence of SSTR5 (P35346 whole entry): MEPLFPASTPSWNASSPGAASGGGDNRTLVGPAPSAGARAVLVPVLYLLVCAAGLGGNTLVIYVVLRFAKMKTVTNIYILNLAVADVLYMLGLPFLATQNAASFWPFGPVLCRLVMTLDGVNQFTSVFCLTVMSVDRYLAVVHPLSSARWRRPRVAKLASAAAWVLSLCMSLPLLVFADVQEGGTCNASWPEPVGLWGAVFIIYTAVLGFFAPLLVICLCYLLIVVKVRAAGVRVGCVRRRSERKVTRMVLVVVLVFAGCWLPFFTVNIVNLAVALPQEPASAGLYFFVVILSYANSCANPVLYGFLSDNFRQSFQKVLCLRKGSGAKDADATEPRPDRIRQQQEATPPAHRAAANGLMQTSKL

Row | pIC50 | SMILES
1 | 9.20 | CCOc1cc(CN2CCC3(CC2)CN(c2ccc(C(=O)O)cc2)C(=O)O3)c(-c2ccc(C(F)(F)F)nc2)cc1C [Example 4-20, 4-(8-{5-Ethoxy-4-methyl-2-[6-(trifluoromethyl)pyridin-3-yl]benzyl}-2-oxo-1-oxa-3,8-diazaspiro[4.5]dec-3-yl)benzoic acid, TFA salt]
2 | 7.83 | CC(C)(C)n1cc(CN2CC3(C2)CN(c2ccc(C(=O)O)cc2)C(=O)O3)c(-c2ccc(F)c(F)c2F)n1 [Example 2-9, 4-(2-{[1-tert-Butyl-3-(2,3,4-trifluorophenyl)-1H-pyrazol-4-yl]methyl}-6-oxo-5-oxa-2,7-diazaspiro[3.4]oct-7-yl)benzoic acid, TFA salt]
3 | 6.38 | O=C(O)c1ccc(N2CC3(CCN(Cc4nc(C5CC5)oc4-c4ccc(F)c(Cl)c4)CC3)OC2=O)cc1 [Example 6-31, 4-(8-{[5-(3-Chloro-4-fluorophenyl)-2-cyclopropyl-1,3-oxazol-4-yl]methyl}-2-oxo-1-oxa-3,8-diazaspiro[4.5]dec-3-yl)benzoic acid, TFA salt]
4 | 9.50 | Cc1cc(CN2CCC3(CC2)CN(c2ccc(C(=O)O)cc2)C(=O)O3)cc2c1OCCC2(C)C [Example 5-13, 4-{2-Oxo-8-[(4,4,8-trimethyl-3,4-dihydro-2H-chromen-6-yl)methyl]-1-oxa-3,8-diazaspiro[4.5]dec-3-yl}benzoic acid, TFA salt]
5 | 8.03 | Cc1cc(-c2ccc(C(F)(F)F)nc2)c(CN2CCC3(CC2)CN(c2ccc(C(=O)O)cc2)C(=O)O3)cc1Cl [Example 4-26, 4-(8-{5-Chloro-4-methyl-2-[6-(trifluoromethyl)pyridin-3-yl]benzyl}-2-oxo-1-oxa-3,8-diazaspiro[4.5]dec-3-yl)benzoic acid, TFA salt]
6 | 8.06 | COc1ccc2c(CN3CCC4(CC3)CN(c3ccc(C(=O)O)cc3)C(=O)O4)c[nH]c2c1 [Example 6-22, 4-{8-[(6-Methoxy-1H-indol-3-yl)methyl]-2-oxo-1-oxa-3,8-diazaspiro[4.5]dec-3-yl}benzoic acid, TFA salt]
7 | 8.66 | CC(C)(C)n1cc(CN2CCC3(CC2)CN(c2ccc(C(=O)O)cc2)C(=O)O3)c(-c2c(F)cc(F)cc2F)n1 [Example 1-8, 4-(8-{[1-tert-Butyl-3-(2,4,6-trifluorophenyl)-1H-pyrazol-4-yl]methyl}-2-oxo-1-oxa-3,8-diazaspiro[4.5]dec-3-yl)benzoic acid, TFA salt]
8 | 8.25 | CCOc1cc(CN2CCC3(C2)CN(c2ccc(C(=O)O)cc2)C(=O)O3)cc(OCC)c1-c1ccc(F)cc1 (stereo not shown) [Example 2-16, 4-{7-[(2,6-Diethoxy-4′-fluorobiphenyl-4-yl)methyl]-2-oxo-1-oxa-3,7-diazaspiro[4.4]non-3-yl}benzoic acid, TFA salt]
9 | 9.19 | CCOc1cc(CN2CCC3(CC2)CN(c2ccc(C(=O)O)cc2)C(=O)O3)cc2c(OC)cc(Cl)cc12 [Example 5-5, 4-{8-[(6-Chloro-4-ethoxy-8-methoxynaphthalen-2-yl)methyl]-2-oxo-1-oxa-3,8-diazaspiro[4.5]dec-3-yl}benzoic acid, TFA salt]
10 | 5.92 | O=C(O)c1ccc(N2CC3(CCN(Cc4nc5ccccn5c4-c4cc(F)c(F)cc4F)CC3)OC2=O)cc1 [Example 6-36, 4-(2-Oxo-8-{[3-(2,4,5-trifluorophenyl)imidazo[1,2-a]pyridin-2-yl]methyl}-1-oxa-3,8-diazaspiro[4.5]dec-3-yl)benzoic acid, TFA salt]
11 | 8.82 | CCOc1ccc(-c2nccs2)c(CN2CCC3(CC2)CN(c2ccc(C(=O)O)cc2)C(=O)O3)c1 [Example 4-27, 4-{8-[5-Ethoxy-2-(1,3-thiazol-2-yl)benzyl]-2-oxo-1-oxa-3,8-diazaspiro[4.5]dec-3-yl}benzoic acid, TFA salt]
12 | 7.10 | O=C(O)c1ccc(N2CC3(CCN(Cc4c(Cc5cc(F)c(F)cc5F)nn(-c5ccccc5)c4Cl)CC3)OC2=O)cc1 [Example 1-47, 4-(8-{[5-Chloro-1-phenyl-3-(2,4,5-trifluorobenzyl)-1H-pyrazol-4-yl]methyl}-2-oxo-1-oxa-3,8-diazaspiro[4.5]dec-3-yl)benzoic acid, TFA salt]
13 | 8.81 | Cc1ccc(-n2cc(CN3CCC4(CC3)CN(c3ccc(C(=O)O)cc3)C(=O)O4)c(-c3ccc(F)c(F)c3F)n2)c(C)c1 [Example 1-6, 4-(8-{[1-(2,4-Dimethylphenyl)-3-(2,3,4-trifluorophenyl)-1H-pyrazol-4-yl]methyl}-2-oxo-1-oxa-3,8-diazaspiro[4.5]dec-3-yl)benzoic acid, TFA salt]
14 | 8.15 | CCOc1cc(CN2CCC3(CC2)CN(c2ccc(-c4nn[nH]n4)cc2OC)C(=O)O3)cc(OCC)c1-c1ccc(F)cc1 [Example 3-7, 8-[(2,6-Diethoxy-4′-fluorobiphenyl-4-yl)methyl]-3-[2-methoxy-4-(2H-tetrazol-5-yl)phenyl]-1-oxa-3,8-diazaspiro[4.5]decan-2-one, TFA salt]
15 | 8.54 | COc1ccc(-c2nn(C(C)(C)C)cc2CN2CCC3(CC2)CN(c2ccc(C(=O)O)cc2)C(=O)O3)cc1 [Example 1-10, 4-(8-{[1-tert-Butyl-3-(4-methoxyphenyl)-1H-pyrazol-4-yl]methyl}-2-oxo-1-oxa-3,8-diazaspiro[4.5]dec-3-yl)benzoic acid, TFA salt]
16 | 8.27 | CCOc1ccc(-c2nn(-c3ccccc3)cc2CN2CCC3(CC2)CN(c2ccc(C(=O)O)cc2)C(=O)O3)cc1 [Example 1-12, 4-(8-{[3-(4-Ethoxyphenyl)-1-phenyl-1H-pyrazol-4-yl]methyl}-2-oxo-1-oxa-3,8-diazaspiro[4.5]dec-3-yl)benzoic acid, TFA salt]
17 | 8.55 | O=C(O)c1ccc(N2CC3(CCN(Cc4cn(-c5ccccc5)nc4-c4ccccc4)CC3)OC2=O)cc1 [Example 1-3, 4-{8-[(1,3-Diphenyl-1H-pyrazol-4-yl)methyl]-2-oxo-1-oxa-3,8-diazaspiro[4.5]dec-3-yl}benzoic acid, TFA salt]
18 | 9.26 | CC(C)n1cc(CN2CCC3(CC2)CN(c2ccc(C(=O)O)cc2)C(=O)O3)c2cc(Br)ccc21 [Example 6-25, 4-(8-{[5-Bromo-1-(propan-2-yl)-1H-indol-3-yl]methyl}-2-oxo-1-oxa-3,8-diazaspiro[4.5]dec-3-yl)benzoic acid, TFA salt]
19 | 7.34 | CC1(C)Cc2cc(CN3CCC4(CC3)CN(c3ccc(C(=O)O)cc3)C(=O)O4)ccc2O1 [Example 5-18, 4-{8-[(2,2-Dimethyl-2,3-dihydro-1-benzofuran-5-yl)methyl]-2-oxo-1-oxa-3,8-diazaspiro[4.5]dec-3-yl}benzoic acid, TFA salt]
20 | 9.39 | CCOc1cc(CN2CCC3(CC2)CN(c2ccc(C(=O)O)cc2)C(=O)O3)c(-c2ccc(F)nc2)cc1C [Example 4-14, 4-{8-[5-Ethoxy-2-(6-fluoropyridin-3-yl)-4-methylbenzyl]-2-oxo-1-oxa-3,8-diazaspiro[4.5]dec-3-yl}benzoic acid, TFA salt]
21 | 6.92 | O=C(O)c1ccc(N2CC3(CCN(Cc4nc(-c5ccccc5)oc4-c4ccc(F)c(Cl)c4)CC3)OC2=O)cc1 [Example 6-27, 4-(8-{[5-(3-Chloro-4-fluorophenyl)-2-phenyl-1,3-oxazol-4-yl]methyl}-2-oxo-1-oxa-3,8-diazaspiro[4.5]dec-3-yl)benzoic acid, TFA salt]
22 | 9.26 | CC(C)Oc1ccc(-c2ccc(F)c(F)c2F)c(CN2CCC3(CC2)CN(c2ccc(C(=O)O)cc2)C(=O)O3)c1 [Example 4-6, 4-{8-[(4-(Prop-2-yloxy)-2′,3′,4′-trifluorobiphenyl-2-yl)methyl]-2-oxo-1-oxa-3,8-diazaspiro[4.5]dec-3-yl}benzoic acid, TFA salt]
23 | 7.84 | CCCCn1nc(Cc2cc(F)c(F)cc2F)c(CN2CCC3(CC2)CN(c2ccc(C(=O)O)cc2)C(=O)O3)c1Cl [Example 1-44, 4-(8-{[5-Chloro-1-butyl-3-(2,4,5-trifluorobenzyl)-1H-pyrazol-4-yl]methyl}-2-oxo-1-oxa-3,8-diazaspiro[4.5]dec-3-yl)benzoic acid, TFA salt]
24 | 8.31 | CCOc1cc(CN2CCCC3(CC2)CN(c2ccc(C(=O)O)cc2)C(=O)O3)cc(OCC)c1-c1ccc(F)cc1 (stereo not shown) [Example 2-12, 4-{8-[(2,6-Diethoxy-4′-fluorobiphenyl-4-yl)methyl]-2-oxo-1-oxa-3,8-diazaspiro[4.6]undec-3-yl}benzoic acid, TFA salt]
25 | 7.98 | O=C(O)c1ccc(N2CC3(CCN(Cc4cnn(C5CCCCC5)c4-c4cc(F)c(F)cc4F)CC3)OC2=O)cc1 [Example 2-8, 4-(8-{[1-Cyclohexyl-5-(2,4,5-trifluorophenyl)-1H-pyrazol-4-yl]methyl}-2-oxo-1-oxa-3,8-diazaspiro[4.5]dec-3-yl)benzoic acid, TFA salt]
26 | 7.23 | COc1ccc(-c2nn(-c3ccccc3)cc2CN2CCCC3(CC2)CN(c2ccc(C(=O)O)cc2)C(=O)O3)cc1 (stereo not shown) [Example 2-15, 4-(8-{[3-(4-Methoxyphenyl)-1-phenyl-1H-pyrazol-4-yl]methyl}-2-oxo-1-oxa-3,8-diazaspiro[4.6]undec-3-yl)benzoic acid, TFA salt]
27 | 8.27 | O=C(O)c1ccc(N2CC3(CCN(Cc4cn(-c5ccc(F)cc5)nc4-c4ccc(F)cc4)CC3)OC2=O)cc1 [Example 1-20, 4-(8-{[1,3-Bis(4-fluorophenyl)-1H-pyrazol-4-yl]methyl}-2-oxo-1-oxa-3,8-diazaspiro[4.5]dec-3-yl)benzoic acid, TFA salt]
28 | 9.07 | COc1ccc2c(CN3CCC4(CC3)CN(c3ccc(C(=O)O)cc3)C(=O)O4)cn(C(C)C)c2c1 [Example 6-16, 4-(8-{[6-Methoxy-1-(propan-2-yl)-1H-indol-3-yl]methyl}-2-oxo-1-oxa-3,8-diazaspiro[4.5]dec-3-yl)benzoic acid, TFA salt]
